Source: patent publication US12133923B2, “Lipid nanoparticle compositions and uses thereof” (ReCode Therapeutics, Inc., priority 2022, dated 2024)
Read-outs that look alike come from different tables or passages of the source.

Legend:
[1] = test system: CFTR function in human Bronchial Epithelials (hBE); experiment: CFTR function (chloride conductance, MTECC24) in hBE after nebulized CFTR mRNA LNPs; assay type: cell-based
Experimental: CFTR mRNA was incorporated into various LNP compositions: DODAP-containing Composition B and various non-DODAP lipid nanoparticles (400 μL for Composition A and Composition H) stored in 1× phosphate buffered saline (PBS). The compositions were nebulized using a VitroCell® system with a mesh nebulizer to deliver aerosolized LNPs to primary human Bronchial Epithelials (hBE). CFTR function was measured. The composition of the nanoparticles used in the study is shown below in Table 13.
Experiments were conducted to evaluate the impact of cholesterol on the stability and efficacy of lipid nanoparticle (LNP) compositions. Composition B lipid nanoparticles containing higher molar percentage of cholesterol were created and subjected to test its CFTR function. Chloride conductance was measured with multi transepithelial current clamp system (MTECC24). […] Further, lipid nanoparticles containing 50% molar percentage of cholesterol were created, measured its CFTR function and resulted that increased molar percentage of cholesterol in lipid nanoparticles enhanced CFTR function (FIG. 41). […]
Cystic Fibrosis treatment drugs (Trifkafta or Orkambi) were treated at the time of nebulization. At 24 h post-treatment, chloride conductance was measured with multi transepithelial current clamp system (MTECC24). […]

hBE cells = experiment: Transepithelial electrical resistance (TEER) in hBE; assay type: cell-based, human; details: W1282X/W1282X and R553X/W1282X hBE; pre-treatment before LNP nebulization
Experimental: As used herein, the phrase “transepithelial electrical resistance (TEER)” is a measurement method of electrical resistance across a cellular monolayer to confirm the integrity and permeability of a monolayer. Measurement of TEER is described, for example, in Srinivasan et al. J. Lab. Automation 20:107-126 (2015).
Cystic Fibrosis treatment drugs (Trifkafta or Orkambi) were treated at the time of nebulization. At 24 h post-treatment, chloride conductance was measured with multi transepithelial current clamp system (MTECC24). In both cell lines, nebulization of lipid nanoparticles containing CFTR mRNA rescued CFTR function.
To determine whether aerosolized lipid nanoparticles affect cell toxicity, six ΔF508/ΔF508 homozygous genotypes hBE cells were dosed lipid nanoparticles and measured electrical resistance across a cellular monolayer and released lactic acid dehydrogenase (LDH).
To determine whether mucus production affects transfection efficiency of lipid nanoparticles, W1282X/W1282X hBEs and R553X/W1282X hBEs cells were pre-treated Dithiothreitol (DTT) before lipid nanoparticles were nebulized (experimental scheme shown in FIG. 49). […] Cell toxicities were measured by transepithelial electrical resistance (TEER).

[2] = Single dose inhalation study: LNP component lipid levels in blood, lung, liver, spleen; assay type: in vivo, cynomolgus monkey; details: for lipid signal in lung remaining: 72 hr; for lipid signal in lung remaining, % of peak: 7 days; for time of peak lipid level in lung tissue: after inhaled Composition A-DNAI1-HA
Experimental: Group 1 animals were terminated at 24-hours post end of exposure.
Levels of the LNP component lipids 4A3-SC7, 14:0 EPC, and DMG-PEG were measured in blood, lung, liver, and spleen samples following administration of Composition-DNAI1-HA. Blood samples were collected at pre-treatment, 0.5 hr, 1 hr, 6 hr, 24 hr, 48 hr, and 7 days postadministration and processed to separate the plasma and blood cell fractions. Spleen and liver samples were collected at 6 hr, 24 hr, 72 hr, and 7 days post-exposure. Lung tissue was sampled in three locations from the right lung of each animal: Caudal lobe, cranial lobe, and middle lobe at each necropsy time point.

## O[C@H](CS)[C@H](O)CS (racemic) [DTT, Dithiothreitol]
[1]; W1282X/W1282X and R553X/W1282X hBE, pre-treatment raised from 3 mM to 10 mM
  chloride flux after nebulization of lipid nanoparticles: correlated with higher chloride flux
hBE cells
  cell toxicity by TEER: cell integrity was not affected

## CCCCCCCCCCCCCC(=O)OCC(COP(=O)(OCC)OCC[N+](C)(C)C)OC(=O)CCCCCCCCCCCCC (stereo not shown) [14:0 EPC, 1,2-dimyristoyl-sn-glycero-3-ethylphosphocholine]
[2]; high dose
  lipid signal in lung remaining: 2.5%
  lipid signal in lung remaining, % of peak: 0.8%
[2]; low dose
  lipid signal in lung remaining: 13.2%
  lipid signal in lung remaining, % of peak: 0.7%
[2]
  time of peak lipid level in lung tissue: 6 h
[2]; all samples except one high dose sample at 6 hr (below assay LOQ)
  lipid level in liver: not detected
[2]; both sexes, cynomolgus monkey, lung, inhaled, 0.34 mg/kg, 6 hr, high dose (group 3), read-out: lipid level in lung
  concentration at 6 hr: 13900 to 66700 ng/g
[2]; both sexes, cynomolgus monkey, plasma, inhaled, 0.34 mg/kg, high dose (group 3), 1 hr, read-out: lipid level in plasma
  concentration at 1 hr: 1.03 ng/mL
[2]; both sexes, cynomolgus monkey, plasma, inhaled, 0.34 mg/kg, high dose (group 3), 6 hr, read-out: lipid level in plasma
  concentration at 6 hr: 1.97 ng/mL
[2]; both sexes, cynomolgus monkey, spleen, inhaled, 0.34 mg/kg, high dose sample at 6 hr, all others not detected, read-out: lipid level in spleen
  concentration at 6 hr: 9.56 ng/g
[2]; high dose (group 3), 1 hr
  lipid level in plasma: 0.99 ng/mL

## CCCCCCCSCC(C)C(=O)OCCOC(=O)CCN(CCCN(C)CCCN(CCC(=O)OCCOC(=O)C(C)CSCCCCCCC)CCC(=O)OCCOC(=O)C(C)CSCCCCCCC)CCC(=O)OCCOC(=O)C(C)CSCCCCCCC (stereo not shown) [Composition 4A3-SC7]
[2]; high dose
  lipid signal in lung remaining: 0.6%
[2]; low dose
  lipid signal in lung remaining: 13%
[2]; 7 days post-administration, all samples except one caudal lobe sample in high dose group
  lipid level in lung: below the limit of quantitation
[2]
  time of peak lipid level in lung tissue: 6 h
[2]; both sexes, cynomolgus monkey, lung, inhaled, 0.34 mg/kg, 6 hr post-exposure, high dose group, read-out: lipid level in lung
  concentration at 6 hr: 9550 to 67800 ng/mL

## CC(C)(C)c1cc(C(C)(C)C)c(NC(=O)c2c[nH]c3ccccc3c2=O)cc1O [Ivacaftor]
[1]; R553X/W1282X and W1282X/W1282X hBE, after delivery of lipid nanoparticles
  rescue of CFTR function on addition of CFTR activator: further increased rescue of CFTR function
